ChEMBL document CHEMBL3992518, “Peptide Macrocycle Inhibitor of Coagulation Factor XII with Subnanomolar Affinity and High Target Selectivity” (J Med Chem, 2017)
*1 amine or outer side, *2 acyl side, *3 side chain or, on linkers, in order; H or OH if unused. Where a SMILES comes first, the peptide text is derived from it. Bridges are numbered along the chain shown (N, C = ends). [ ]: non-standard residue; d: D form. TATA = O=C(CC[*:1])N1CN(C(=O)CC[*:2])CN(C(=O)CC[*:3])C1; Agb = N=C(N)NCC[C@H](N)C(=O)O; hLys = NCCCCC[C@H](N)C(=O)O; Nva = CCC[C@H](N)C(=O)O

biological target: T1, Coagulation factor XII (Homo sapiens, UniProt P00748); assay: Inhibition of human beta factor 12a using fluorogenic substrate Boc-Gln-Gly-Arg-AMC preincubated for 10 mins followed by addition of substrate measured every min for 30 mins
T1 sequence (P00748 whole entry): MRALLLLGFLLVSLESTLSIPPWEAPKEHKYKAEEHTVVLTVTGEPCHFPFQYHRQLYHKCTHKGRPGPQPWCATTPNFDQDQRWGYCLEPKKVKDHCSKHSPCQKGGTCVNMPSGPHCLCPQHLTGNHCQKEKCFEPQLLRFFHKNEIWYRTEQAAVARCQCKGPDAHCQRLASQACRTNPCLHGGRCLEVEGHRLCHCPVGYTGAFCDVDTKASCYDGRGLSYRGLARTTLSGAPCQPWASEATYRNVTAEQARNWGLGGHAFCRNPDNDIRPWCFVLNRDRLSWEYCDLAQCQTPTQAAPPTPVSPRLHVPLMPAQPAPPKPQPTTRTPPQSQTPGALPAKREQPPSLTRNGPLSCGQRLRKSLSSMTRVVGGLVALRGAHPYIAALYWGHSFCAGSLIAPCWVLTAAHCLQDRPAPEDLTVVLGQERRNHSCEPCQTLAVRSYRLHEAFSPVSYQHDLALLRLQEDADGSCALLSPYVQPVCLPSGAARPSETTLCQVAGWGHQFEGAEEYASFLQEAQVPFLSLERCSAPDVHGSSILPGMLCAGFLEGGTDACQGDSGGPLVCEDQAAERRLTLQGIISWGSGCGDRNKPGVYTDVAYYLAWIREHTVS

Row | Structure (SMILES) | Ki [µM]
1 | CC(C)C[C@@H]1NC(=O)[C@H](CC(N)=O)NC(=O)[C@H](CCCNC(=N)N)NC(=O)[C@@H]2CSCCC(=O)N3CN(CN(C3)C(=O)CCSC[C@H](NC(=O)[C@@H](N)CCCNC(=N)N)C(=O)N[C@@H](Cc3ccccc3)C(=O)N[C@@H](CCCNC(=N)N)C(=O)N[C@@H](CC(C)C)C(=O)N3CCC[C@H]3C(=O)N2)C(=O)CCSC[C@@H](C(=O)N[C@@H](CCCNC(=N)N)C(=O)N[C@@H](Cc2c[nH]c3ccccc23)C(=O)O)NC(=O)[C@H](CCCNC(=N)N)NC1=O (H-RCFRLPCRNLRCRW-OH; linker 2-7-12 via TATA) | 1
2 | CC(C)C[C@@H]1NC(=O)[C@H](CCC(N)=O)NC(=O)[C@H](CCCNC(=N)N)NC(=O)[C@@H]2CSCCC(=O)N3CN(CN(C3)C(=O)CCSC[C@H](NC(=O)[C@@H](N)CCCNC(=N)N)C(=O)N[C@@H](C(C)C)C(=O)N[C@@H](CCCNC(=N)N)C(=O)N[C@@H](CC(C)C)C(=O)N3CCC[C@H]3C(=O)N2)C(=O)CCSC[C@@H](C(=O)N[C@@H](CCCNC(=N)N)C(=O)N[C@@H](Cc2c[nH]c3ccccc23)C(=O)O)NC(=O)[C@H](CCCNC(=N)N)NC1=O (H-RCVRLPCRQLRCRW-OH; linker 2-7-12 via TATA) | 0.16
3 | CC(C)C[C@@H]1NC(=O)[C@H](Cc2cnc[nH]2)NC(=O)[C@H](CCCNC(=N)N)NC(=O)[C@@H]2CSCCC(=O)N3CN(CN(C3)C(=O)CCSC[C@H](NC(=O)[C@@H](N)CCCNC(=N)N)C(=O)N[C@@H](Cc3ccccc3)C(=O)N[C@@H](CCCNC(=N)N)C(=O)N[C@@H](CC(C)C)C(=O)N3CCC[C@H]3C(=O)N2)C(=O)CCSC[C@@H](C(=O)N[C@@H](CCCNC(=N)N)C(=O)N[C@@H](Cc2c[nH]c3ccccc23)C(=O)O)NC(=O)[C@H](CCCNC(=N)N)NC1=O (H-RCFRLPCRHLRCRW-OH; linker 2-7-12 via TATA) | > 3
4 | CCC[C@@H]1NC(=O)[C@H](CCCNC(=N)N)NC(=O)[C@H](Cc2ccccc2)NC(=O)[C@@H](NC(=O)[C@@H](N)CCCNC(=N)N)CSCCC(=O)N2CN3CN(C2)C(=O)CCSC[C@H](NC(=O)[C@@H]2CCCN2C1=O)C(=O)N[C@@H](CCCNC(=N)N)C(=O)N[C@@H](CCC(N)=O)C(=O)N[C@@H](CC(C)C)C(=O)N[C@@H](CCCNC(=N)N)C(=O)N[C@H](C(=O)N[C@@H](CCCNC(=N)N)C(=O)N[C@@H](Cc1c[nH]c2ccccc12)C(=O)O)CSCCC3=O (H-RCFR[Nva]PCRQLRCRW-OH; linker 2-7-12 via TATA) | 0.22
5 | CC(C)C[C@@H]1NC(=O)[C@H](CCC(N)=O)NC(=O)[C@H](CCCNC(=N)N)NC(=O)[C@@H]2CSCCC(=O)N3CN(CN(C3)C(=O)CCSC[C@H](NC(=O)[C@@H](N)C(C)C)C(=O)N[C@@H](Cc3ccccc3)C(=O)N[C@@H](CCCNC(=N)N)C(=O)N[C@@H](CC(C)C)C(=O)N3CCC[C@H]3C(=O)N2)C(=O)CCSC[C@@H](C(=O)N[C@@H](CCCNC(=N)N)C(=O)O)NC(=O)[C@H](CCCNC(=N)N)NC1=O (H-VCFRLPCRQLRCR-OH; linker 2-7-12 via TATA) | 0.099
6 | CC(C)C[C@@H]1NC(=O)[C@H](CCC(N)=O)NC(=O)[C@H](CCCNC(=N)N)NC(=O)[C@@H]2CSCCC(=O)N3CN(CN(C3)C(=O)CCSC[C@H](NC(=O)[C@@H](N)CCCNC(=N)N)C(=O)N[C@@H](Cc3ccccc3)C(=O)N[C@@H](CCNC(=N)N)C(=O)N[C@@H](CC(C)C)C(=O)N3CCC[C@H]3C(=O)N2)C(=O)CCSC[C@@H](C(=O)N[C@@H](CCCNC(=N)N)C(=O)N[C@@H](Cc2c[nH]c3ccccc23)C(=O)O)NC(=O)[C@H](CCCNC(=N)N)NC1=O (H-RCF[Agb]LPCRQLRCRW-OH; linker 2-7-12 via TATA) | 0.156
7 | CC(C)C[C@@H]1NC(=O)[C@H](CCC(N)=O)NC(=O)[C@H](CCCNC(=N)N)NC(=O)[C@@H]2CSCCC(=O)N3CN(CN(C3)C(=O)CCSC[C@H](NC(=O)[C@@H](N)CCCNC(=N)N)C(=O)N[C@@H](Cc3ccc(I)cc3)C(=O)N[C@@H](CCCNC(=N)N)C(=O)N[C@@H](CC(C)C)C(=O)N3CCC[C@H]3C(=O)N2)C(=O)CCSC[C@@H](C(=O)N[C@@H](CCCNC(=N)N)C(=O)N[C@@H](Cc2c[nH]c3ccccc23)C(=O)O)NC(=O)[C@H](CCCNC(=N)N)NC1=O | 0.092
8 | CC(C)C[C@@H]1NC(=O)[C@H](CCC(N)=O)NC(=O)[C@H](CCCNC(=N)N)NC(=O)[C@@H]2CSCCC(=O)N3CN(CN(C3)C(=O)CCSC[C@H](NC(=O)[C@@H](N)CCCNC(=N)N)C(=O)N[C@@H](Cc3ccccc3)C(=O)N[C@@H](CCCNC(=N)N)C(=O)N[C@@H](C)C(=O)N3CCC[C@H]3C(=O)N2)C(=O)CCSC[C@@H](C(=O)N[C@@H](CCCNC(=N)N)C(=O)N[C@@H](Cc2c[nH]c3ccccc23)C(=O)O)NC(=O)[C@H](CCCNC(=N)N)NC1=O (H-RCFRAPCRQLRCRW-OH; linker 2-7-12 via TATA) | > 3

Molecules with a lower Ki, results first:

Row | Ki [µM] | Structure (SMILES)
9 | 0.0306 | CCCC[C@@H]1NC(=O)[C@H](CCC(N)=O)NC(=O)[C@H](CCCNC(=N)N)NC(=O)[C@@H]2CSCCC(=O)N3CN(CN(C3)C(=O)CCSC[C@H](NC(=O)[C@@H](N)CCCNC(=N)N)C(=O)N[C@@H](Cc3ccccc3)C(=O)N[C@@H](CCCNC(=N)N)C(=O)N[C@@H](CC(C)C)C(=O)N3CCC[C@H]3C(=O)N2)C(=O)CCSC[C@@H](C(=O)N[C@@H](CCCNC(=N)N)C(=O)N[C@@H](Cc2c[nH]c3ccccc23)C(=O)O)NC(=O)[C@H](CCCNC(=N)N)NC1=O
10 | 0.0322 | CC(C)C[C@@H]1NC(=O)[C@H](CCC(N)=O)NC(=O)[C@H](CCCNC(=N)N)NC(=O)[C@@H]2CSCCC(=O)N3CN(CN(C3)C(=O)CCSC[C@H](NC(=O)[C@@H](N)CCCNC(=N)N)C(=O)N[C@@H](Cc3ccc(O)cc3)C(=O)N[C@@H](CCCNC(=N)N)C(=O)N[C@@H](CC(C)C)C(=O)N3CCC[C@H]3C(=O)N2)C(=O)CCSC[C@@H](C(=O)N[C@@H](CCCNC(=N)N)C(=O)N[C@@H](Cc2c[nH]c3ccccc23)C(=O)O)NC(=O)[C@H](CCCNC(=N)N)NC1=O (H-RCYRLPCRQLRCRW-OH; linker 2-7-12 via TATA)
11 | 0.0037 | Cc1cccc(C[C@@H]2NC(=O)[C@@H](NC(=O)[C@@H](N)CCCNC(=N)N)CSCCC(=O)N3CN4CN(C3)C(=O)CCSC[C@H](NC(=O)[C@@H]3CCCN3C(=O)[C@H](CC(C)C)NC(=O)[C@H](CCCNC(=N)N)NC2=O)C(=O)N[C@@H](CCCNC(=N)N)C(=O)N[C@@H](CCC(N)=O)C(=O)N[C@@H](CC(C)C)C(=O)N[C@@H](CCCNC(=N)N)C(=O)N[C@H](C(=O)N[C@@H](CCCNC(=N)N)C(=O)N[C@@H](Cc2c[nH]c3ccccc23)C(=O)O)CSCCC4=O)c1
12 | 0.003 | CC(C)C[C@@H]1NC(=O)[C@H](CCC(N)=O)NC(=O)[C@H](CCCNC(=N)N)NC(=O)[C@@H]2CSCCC(=O)N3CN(CN(C3)C(=O)CCSC[C@H](NC(=O)[C@@H](N)CCCNC(=N)N)C(=O)N[C@@H](Cc3cccnc3)C(=O)N[C@@H](CCCNC(=N)N)C(=O)N[C@@H](CC(C)C)C(=O)N3CCC[C@H]3C(=O)N2)C(=O)CCSC[C@@H](C(=O)N[C@@H](CCCNC(=N)N)C(=O)N[C@@H](Cc2c[nH]c3ccccc23)C(=O)O)NC(=O)[C@H](CCCNC(=N)N)NC1=O
13 | 0.051 | CC(C)C[C@@H]1NC(=O)[C@H](CCC(N)=O)NC(=O)[C@H](CCCNC(=N)N)NC(=O)[C@@H]2CSCCC(=O)N3CN(CN(C3)C(=O)CCSC[C@H](NC(=O)[C@@H](N)CCCNC(=N)N)C(=O)N[C@@H](Cc3ccccc3)C(=O)N[C@@H](CCCCCN)C(=O)N[C@@H](CC(C)C)C(=O)N3CCC[C@H]3C(=O)N2)C(=O)CCSC[C@@H](C(=O)N[C@@H](CCCNC(=N)N)C(=O)N[C@@H](Cc2c[nH]c3ccccc23)C(=O)O)NC(=O)[C@H](CCCNC(=N)N)NC1=O (H-RCF[hLys]LPCRQLRCRW-OH; linker 2-7-12 via TATA)
14 | 0.013 | CC(C)C[C@@H]1NC(=O)[C@H](CCC(N)=O)NC(=O)[C@H](CCCNC(=N)N)NC(=O)[C@@H]2CSCCC(=O)N3CN(CN(C3)C(=O)CCSC[C@H](NC(=O)[C@@H](N)CCCNC(=N)N)C(=O)N[C@@H](Cc3ccccc3)C(=O)N[C@@H](CCCNC(=N)N)C(=O)N[C@@H](CC(C)C)C(=O)N[C@@H](CC(C)C)C(=O)N2)C(=O)CCSC[C@@H](C(=O)N[C@@H](CCCNC(=N)N)C(=O)N[C@@H](Cc2c[nH]c3ccccc23)C(=O)O)NC(=O)[C@H](CCCNC(=N)N)NC1=O (H-RCFRLLCRQLRCRW-OH; linker 2-7-12 via TATA)
15 | 0.01 | CC(C)C[C@@H]1NC(=O)[C@H](CCC(N)=O)NC(=O)[C@H](CCCNC(=N)N)NC(=O)[C@@H]2CSCCC(=O)N3CN(CN(C3)C(=O)CCSC[C@H](NC(=O)[C@@H](N)CCCNC(=N)N)C(=O)N[C@@H](Cc3cccc4ccccc34)C(=O)N[C@@H](CCCNC(=N)N)C(=O)N[C@@H](CC(C)C)C(=O)N3CCC[C@H]3C(=O)N2)C(=O)CCSC[C@@H](C(=O)N[C@@H](CCCNC(=N)N)C(=O)N[C@@H](Cc2c[nH]c3ccccc23)C(=O)O)NC(=O)[C@H](CCCNC(=N)N)NC1=O
16 | 0.0344 | CC(C)C[C@@H]1NC(=O)[C@H](CCC(N)=O)NC(=O)[C@H](CCCNC(=N)N)NC(=O)[C@@H]2CSCCC(=O)N3CN(CN(C3)C(=O)CCSC[C@@H](C(=O)N[C@@H](CCCNC(=N)N)C(=O)O)NC(=O)[C@H](CCCNC(=N)N)NC1=O)C(=O)CCSC[C@H](NC(=O)[C@H](N)CCCNC(=N)N)C(=O)N[C@@H](Cc1ccccc1)C(=O)N[C@@H](CCCNC(=N)N)C(=O)N[C@@H](CC(C)C)C(=O)N1CCC[C@H]1C(=O)N2
